Experimental data: ChEMBL document CHEMBL3045412, “Antifungal activity and fungal metabolism of steroidal glycosides of Easter lily (Lilium longiflorum Thunb.) by the plant pathogenic fungus, Botrytis cinerea” (2011)
Calls of active or inactive are those of the source. The calls are words filed in the database; no cut-off is given here.

Key:
Botrytis cinerea [1] = experiment: Antifungal activity against Botryotinia fuckeliana assessed as radial mycelia growth inhibition at 25 degC at 100 umol relative to control (crop protection Lilium longiflorum Thunb.); assay type: functional
Botrytis cinerea [2] = experiment: Antifungal activity against Botryotinia fuckeliana assessed as radial mycelia growth inhibition at 25 degC at 1 to 100 umol relative to control (crop protection Lilium longiflorum Thunb.); assay type: functional, organism-based

SMILES | growth inhibition (GI) (Botrytis cinerea [1]) [%] | growth inhibition (GI) (Botrytis cinerea [2])
CC(=O)OC[C@H]1O[C@@H](O[C@H]2[C@H](O)[C@@H](O[C@@H]3O[C@@H](C)[C@H](O)[C@@H](O)[C@H]3O)[C@H](O[C@H]3CC[C@@]4(C)C(=CC[C@H]5[C@@H]6C[C@@H]7O[C@]8(CC[C@@H](C)CN8)[C@@H](C)[C@@H]7[C@@]6(C)CC[C@@H]54)C3)O[C@@H]2CO)[C@H](O)[C@@H](O)[C@@H]1O | 49 | 
C[C@H](CC[C@@]1(O)O[C@H]2C[C@H]3[C@@H]4CC=C5C[C@@H](O[C@@H]6O[C@H](CO)[C@@H](O)[C@H](O[C@@H]7OC[C@H](O)[C@@H](O)[C@@H]7O)[C@H]6O[C@@H]6O[C@@H](C)[C@H](O)[C@@H](O)[C@H]6O)CC[C@]5(C)[C@H]4CC[C@]3(C)[C@H]2[C@@H]1C)CO[C@@H]1O[C@H](CO)[C@@H](O)[C@H](O)[C@H]1O | 25 | 
C[C@@H]1CC[C@@]2(NC1)O[C@H]1C[C@H]3[C@@H]4CC=C5C[C@@H](O[C@@H]6O[C@H](CO)[C@@H](O[C@@H]7O[C@H](CO)[C@@H](O)[C@H](O)[C@H]7O)[C@H](O)[C@H]6O[C@@H]6O[C@@H](C)[C@H](O)[C@@H](O)[C@H]6O)CC[C@]5(C)[C@H]4CC[C@]3(C)[C@H]1[C@@H]2C |  | Active
C[C@H](CC[C@@]1(O)O[C@H]2C[C@H]3[C@@H]4CC=C5C[C@@H](O[C@@H]6O[C@H](CO)[C@@H](O[C@@H]7O[C@H](CO)[C@@H](O)[C@H](O)[C@H]7O)[C@H](O)[C@H]6O[C@@H]6O[C@@H](C)[C@H](O)[C@@H](O)[C@H]6O)CC[C@]5(C)[C@H]4CC[C@]3(C)[C@H]2[C@@H]1C)CO[C@@H]1O[C@H](CO)[C@@H](O)[C@H](O)[C@H]1O | 25 | 
C[C@H](CC[C@@]1(O)O[C@H]2C[C@H]3[C@@H]4CC=C5C[C@@H](O[C@@H]6O[C@H](CO)[C@@H](O)[C@H](O[C@@H]7OC[C@H](O)[C@H](O)[C@H]7O)[C@H]6O[C@@H]6O[C@@H](C)[C@H](O)[C@@H](O)[C@H]6O)CC[C@]5(C)[C@H]4CC[C@]3(C)[C@H]2[C@@H]1C)CO[C@@H]1O[C@H](CO)[C@@H](O)[C@H](O)[C@H]1O | 25 | 
